In patent US10933031B2, “Use of guaiacol for the prevention and treatment of glycogen storage disease” (THE TRUSTEES OF COLUMBIA UNIVERSITY IN THE CITY OF NEW YORK, priority 2016, dated 2021):
Entries after “also recorded” stand apart in the source; their conditions may differ.

What was measured:
[1] = tested on: AMP kinase alpha (AMPK-α); test: Western blot of AMP kinase Thr 172 phosphorylation; format: in vivo, mouse; settings: tissue extracts of treated wild type and Gbe1^ys/ys mice, relative to total AMPK-α
Description: FIG. 7 is a Western blot of phospho AMPK-α and total AMPK in muscle extracts obtained from wild type and Gbe1^ys/ys mice, and guaiacol-treated wild type and Gbe1^ys/ys mice.
Glycogen synthesis and breakdown is regulated according to the energy state of the cell. When glucose is abundant amount of ATP is high and AMP kinase remains un-phosphorylated. However when glucose concentrations go down so do the ATP levels because it is being converted to ADP and AMP.

[2] = tested on: Gbe1^ys/ys mice; test: Lifespan and disease signs of Gbe1^ys/ys mice on guaiacol in drinking water; format: in vivo, mouse
Procedure: FIG. 9 is a Kaplan-Meier plot which illustrates the incidence of death in Gbe1^ys/ys (n=47), versus wild type mice (n=29), and guaiacol-treated Gbe1^ys/ys and wild type mice (n=4 each).
(§1) Mice were treated with guaiacol in drinking water for 12 months every other day by preparing fresh guaiacol solution in water (3.8 g/liter or 3.1 ml/liter) considering the fact that an adult mouse drinks 6 ml water every day (Bachamov et al. 2002).
Treated Gbe1^ys/ys mice lived up to 24 months at time they were sacrificed as required by the protocol (FIG. 9).

[3] = tested on: Gbe1^neo/− MEF; test: High throughput PAS-fluorescence screen of polyglucosan bodies in GBE-deficient MEF; format: cell-based, mouse
Procedure: Skin fibroblasts from wild type or Gbe1^neo/− E17.5 embryos were cultured to establish the MEF cell line by methods known in the art (FIG. 2). Diastase-resistant PAS positive staining was used specifically for carbohydrate staining. After paraformaldehyde fixation, cells were washed with PBS and normal glycogen was degraded by alpha-amylase digestion. The residual polysaccharides and PG in MEF were treated with periodic acid to oxidize sugars to aldehydes, which react with the Schiff reagent and stain pink. Although PAS staining was very efficient to detect PG (see FIGS. 2A, 2B, 2C, 2E, and 2G), the IN Cell 2000 cell detection system relies on fluorescence staining. PAS staining itself is fluorescent due to pararosanilin reagents, such as Rhodamine and TRITC, which can be excited (400 nm) and emits light detectable in red range ([…]) (FIGS. 2D, 2F and 2H).
To set up the automated detection system, control Gbe1^+/+ and Gbe1^neo/− MEFs were plated at different density on 384-well plates in order to obtain optimal cell density. A second important optimization regarded the diastase digestion of normal glycogen, keeping in mind that PGBs are resistant to diastase digestion and longer incubation times and/or higher enzyme concentrations are needed to digest PG. […] After diastase digestion, they were stained with PAS, and, after brief nuclear staining with Hoechst, the plates were analyzed by IN Cell 2000, GE Healthcare (Piscataway, N.J.), a high-throughput imaging system capable of performing high-content analysis using a wide array of micro plates. […] Automated quantitative results were obtained in terms of relative fluorescence per cell. Relative fluorescence per positive cells were analyzed and its significance were determined by z score according to plate average or by B score if there is a positional effect related to row and column that occurs in multi well plate cell cultures (Brideau et al. 2003). […]
1500 cells were plated per well to 384-well plates. […] The following day the cells were stained and analyzed as set forth in Example 3.

[4] = tested on: GYS1; test: Western blot of GYS1 phosphorylation in muscle extracts after oral guaiacol; format: in vivo, mouse; settings: wild type mice, 45-720 mg/kg oral gavage, muscle extracts two hours after administration
Description: FIG. 4 is a Western blot of GYS1 and GAPDH in muscle extracts obtained from wild type mice two hours after administration with guaiacol, suspended in water, in the indicated dosage amounts on the top panel by oral gavage.
Glycogen synthase is an allosteric enzyme that can be activated by glucose 6 phosphate or inactivated by phosphorylation of a serine residue on the enzyme. Thus, the phosphorylation status of GYS1 in muscle extracts which is the indicator of glycogen synthase activity was determined.
Wild type mice were administered guaiacol suspended in water at concentrations of 45, 90, 180, 360, and 720 mg/kg. Two hours after administration, muscle extracts were obtained and Western blot analysis of GYS1 was performed.

[5] = tested on: Gbe1^ys/ys mice; test: Tissue glycogen content in treated wild type and Gbe1^ys/ys mice; format: in vivo, mouse
Procedure: FIG. 5 is a graph depicting the results of heart, brain, muscle and liver glycogen content in wild type and Gbe1^ys/ys mice, and guaiacol-treated wild-type and Gbe1^ys/ys mice. Glycogen was measured after a 16 hour fast (n=4 for each treatment). Glycogen content is expressed as percent glucose mg/gram fresh tissue. Error bars represent the mean±SD, P<0.001 where indicated (*).
A mouse model of GBE deficiency created by knocking in via homologous recombination the most common human GBE1 mutation (p.Y329S) found in Ashkenazi Jewish patients has been developed by the inventors and designated Gbe1^ys/ys (Akman et al. 2015).
After one month of treatment, four mice from each group (untreated wild type and Gbe1^ys/ys mice and guaiacol-treated wild type and Gbe1^ys/ys mice) were sacrificed and tissue glycogen contents were measured as described by Pederson et al. 2004.

[6] = Glucose tolerance test (blood glucose); format: in vivo, mouse; settings: after overnight fasting and glucose injection
Procedure: Blood glucose content was measured at times indicated in guaiacol-treated and untreated wild type and APBD (p.Y329s) mice. n=3 in each group.
After overnight fasting, mice were injected glucose and the blood glucose levels were measured.

[7] = Tolerability: grip tests and weight gain or loss; format: in vivo, mouse; settings: 22.5 mg/kg in drinking water
Procedure: as §1

[8] = tested on: MEF; test: Glycogen content of MEF grown in cobalt supplemented media; format: cell-based, mouse; settings: n=3, FIG. 3B
Procedure: FIGS. 3A-3C show guaiacol decreases glycogen synthesis. […] FIG. 3C is a graph showing the results of relative glycogen content of cells grown in cobalt supplemented media after 3 days of guaiacol treatment at concentrations indicated on horizontal axis.
(§2) One hit was obtained corresponding to a compound that decreased polyglucosan synthesis more than 50% at 6.75 μM concentration (FIG. 3). […] This compound identified was guaiacol and has been used as an expectorant and flavoring food additive but is no longer being marketed for medical purposes.

[9] = HPLC of AMP, ADP, ATP and adenosine in muscle extracts; format: in vivo, mouse; settings: for decrease in adenosine levels: muscle
Description: FIG. 8 is a graph depicting results of high performance liquid chromatography analysis of adenosine in muscle of wild type and Gbe1^ys/ys mice, and guaiacol-treated wild type and Gbe1^ys/ys mice.
[…], the heterotrimeric protein AMPK is formed by α, β, and γ subunits. Each of these three subunits takes on a specific role in both the stability and activity of AMPK. (Stapleton et al. 1996). Specifically, the γ subunit includes four particular cystathionine beta synthase (CBS) domains giving AMPK its ability to sensitively detect shifts in the AMP: ATP ratio. The four CBS domains create two binding sites for AMP commonly referred to as Bateman domains. Binding of one AMP to a Bateman domain cooperatively increases the binding affinity of the second AMP to the other Bateman domain (Akman et al. 2007).

[10] = tested on: HepG2 liver epithelial cell line; test: Glycogen content in HepG2 cells cultured with cobalt chloride; format: cell-based; settings: DMEM supplemented with 150 μM cobalt chloride; results not shown
Procedure: as §2

[11] = treated Gbe1^ys/ys mice, long-term treatment
[12] = one month of treatment, 16 hour fast, n=4

In the case of `COc1ccccc1O` [guaiacol], the “Thr 172 phosphorylation of AMP kinase” value [1] was “increased Thr 172 phosphorylation”, the “lifespan of treated mice” value ([2]; Gbe1^ys/ys mice, guaiacol in drinking water, sacrificed at 24 months as required by protocol) was “up to 24 months” and the “gait of treated mice” value ([2]; treated Gbe1^ys/ys mice) was “spastic gait”. The “penile prolapse in male mice” value ([2]; treated Gbe1^ys/ys mice) was “did not have penile prolapse; also recorded: preventing penile prolapse”, the “PG content in the liver” value [2, 11] was “decreased PG content” and the “polyglucosan in the muscle brain and heart” value [2, 11] was “slightly higher polyglucosan”. The “decrease of polyglucosan synthesis” value ([3]; 6.75 μM, three days treatment, JHCCL screen) was “more than 50%”, the “PAS stained granules in the cytosol (diastase treated)” value ([3]; 10 μM guaiacol, MEF cultures, FIG. 3A) was “decreased PAS stained granules” and the “decrease of polyglucosan synthesis and accumulation” value ([3]; JHCCL screen, concentration not stated) was 50%. The “phosphorylation of GYS1 compared to total GYS1 protein” value [4] was “increased”, the “glycogen in brain, muscle and heart” value ([5]; as restated in Example 7) was “increased” and the “glycogen content in the brain and muscle compared to untreated Gbe1^ys/ys mice” value ([5]; later treatments, treated Gbe1^ys/ys mice) was “slight increase”. For the same compound, the “glycogen content in brain heart and muscle” value [5, 12] was “did not change”, the “glycogen content of the liver” value [5, 12] was “significant decrease; also recorded: decreased” and the “duration of high blood glucose versus control mice” value [6] was “remained high longer”. For the same compound, the “blood glucose level versus control mice” value ([6]; wild type and APBD (p.Y329s) mice, n=3) was “higher blood glucose; also recorded: increases blood glucose concentration”, the “effect on animal behavior (grip tests, weight gain or loss)” value [7] was “did not adversely affect the animal's behavior” and the “glycogen content in MEF” value [8] was “decrease of glycogen content”. The “AMP, ADP and ATP levels” value ([9]; muscle extracts, treated vs untreated wild type or Gbe1^ys/ys mice) was “no significant difference”, the “decrease in adenosine levels” value ([9]; Gbe1^ys/ys mice, n=4, p<0.03) was 48% and the “decrease in adenosine levels” value ([9]; wild-type mice, n=4, p<0.02) was 53%. For the same compound, the “glycogen content in HepG2” value [10] was “decreased glycogen content”.
